Consider 91 compounds from a melting point compilation (Tetko et al.; mined from patent text by program, amines drawn as free bases though some values may be those of a salt).

Structures are written as SMILES.

Consider `O=C(Oc1ccccc1)N1Cc2ccccc2C2(Cc3ccccc3O2)C1` (stereo unspecified), for which the melting point amounted to 128 °C.
In the case of `NC(=S)Nc1ccccc1-c1ccccc1` it was 183 to 184 °C.
In the case of `CN(C)c1ccc(Pc2ccc(N(C)C)cc2)cc1` it was 80 to 90 °C; in that of `CN(C)CCNc1nc(Nc2cccc(NS(C)(=O)=O)c2)nc2[nH]cnc12`, 191 to 195 °C; in that of `O=C(c1ccc(F)cc1)c1cc(F)ccc1OCCCCl`, 60 °C.
In the case of `O=c1[nH]c2cc([N+](=O)[O-])cnc2n1-c1ccc2c(c1)OCO2`, the melting point is 224 to 225 °C.
As to `O=Cc1c[nH]c2c1ccc1c3cc(F)ccc3[nH]c12`, the melting point is over 250 °C.
In turn, `O=C1OCCN1c1cccc(CCBr)c1` gave a melting point of 73 to 75 °C.
Under `Cn1ncc2[nH]c3cccc(-c4ccc(O)cc4)c3c(=O)c21` stands over 300 °C; under `CCC(=O)c1cc(CC)c(OC)cc1OC`, 64 to 65 °C.
In the case of `CC(C)c1cccc(C(C)C)c1NC(=O)NCC1(c2c(Cl)cccc2Cl)CCC1` it was 174 to 177 °C.
Consider `O=C1NCCN1C(=O)N1CCOCC1`, for which the melting point is 158 °C.
Under `CCCN(Cc1ccc(-c2ccccc2C(=N)NO)cc1)c1nc2ccccc2cc1C(=O)OCC` stands 61 to 67 °C; under `Cc1noc(C)c1S(=O)(=O)n1c(COC(C)C(=O)O)cc2cc(Cl)ccc21` (stereo unspecified), 110 to 112 °C.
Under `Cc1cc(NC(=O)NC(=O)c2ccccc2Cl)nc(C)c1-c1ccccc1` stands 176 to 189 °C; under `O=C(O)/C=C/c1ccc(OCc2cccnc2)cc1`, 228 to 230 °C.
In the case of `CN(C)c1ccc(NC(=O)C2C(=O)C3CC[C@](C)(C2=O)C3(C)C)cc1` (stereo partly specified) it was 93 to 95 °C; in that of `CCNC(=O)c1c(C2CC2)nc(CC)n1Cc1ccc2oc(-c3ccccc3NS(=O)(=O)C(F)(F)F)c(Br)c2c1`, 124 to 130 °C.
`O=C1NC(=O)C(Br)(c2ccc(Oc3ccccc3)cc2)C(=O)N1`: the melting point lay within 125 to 127 °C.
In the case of `CC(C)(C)C#CC(=O)C#CC(C)(C)C` it was 62 to 63.5 °C.
In the case of `CCN1CC=C(c2c[nH]c3ccc([N+](=O)[O-])cc23)CC1` it was 188 to 190 °C; in that of `COCCc1nc2c(N)nc3ccccc3c2n1CCCCNC(=O)c1cnc2ccccc2n1`, 85 to 87 °C; in that of `CCn1c(-c2ccc(F)cc2)c(OCCOc2ccc(C(C)=C3SC(=O)NC3=O)cc2)c(=O)c2ccccc21`, 214 to 216 °C.
`CN(C)S(=O)(=O)c1ccc(-c2ccccc2)cc1S(=O)(=O)Cl` gave a melting point of 140 to 143 °C.
Under `CCc1noc(C)c1-c1[nH]c2ccccc2c1CCCCN(C)C` stands 156 to 158 °C; under `O=C(O)CCCCCc1c(OCc2ccccc2)ccc2cncn12`, 139 to 141 °C; under `Cc1ccc(C(=O)C=Cc2ccccc2)c(C)c1`, 68 °C.
In the case of `N#CC1=C(Nc2cc(C(F)(F)F)ccc2N)CSC1` it was 189 °C; in that of `CC1(C(=O)O)COc2ccccc2O1` (stereo unspecified), 125 to 130 °C.
Compound `Cn1c(C(F)(F)F)cc(=O)n(-c2ccc3snc(CC(=O)O)c3c2)c1=O` had a melting point of 240 to 242 °C.
`Cn1nc2c(-c3ccc(Cl)cc3Cl)cccc2c1-c1nnco1` showed a melting point of 199 to 201 °C.
With `COC(=O)C(C)Nc1c(C)csc1C` (stereo unspecified), the melting point was in the range of 33 to 34 °C.
Under `CC(C(=O)O)c1ccc(CC2CCCCC2O)c(Cl)c1` (stereo unspecified) stands 123 to 127 °C.
`COc1ccc(C2=NN(c3ccccc3)C(=O)[C@H]3CC=CC[C@@H]23)cc1OC1CCCC1` (relative stereo) gave a melting point of 134 to 135 °C.
In turn, `CC(C)OCCCNC(=O)c1n[nH]cc1NC(=O)c1ccccn1` showed a melting point of 152 to 153 °C.
For the compound `COc1ccc(N2CCN(c3c(C)c(C)c4c(c3C)C(c3ccccn3)C(C)(C)O4)CC2)cc1` (stereo unspecified), the melting point is 123 to 125 °C.
Compound `CCOC(=O)c1cc(-c2ccc(C#N)cc2)[nH]c1N` displayed a melting point of 228 to 229 °C.
Under `Cc1ccc(C(=O)NC(NC(=S)Nc2cccc([N+](=O)[O-])c2)c2ccccc2)cc1` (stereo unspecified) stands 170 to 172 °C; under `CS(=O)(=O)c1ccc(-c2cnn(-c3cccc(Br)c3)c(=O)c2Oc2ccc(F)cc2)cc1`, 208 to 210 °C.
Under `CCC(C)COC(=O)Cn1cccc1-c1nc(-c2ccc(OC)cc2)c(-c2ccc(OC)cc2)s1` (stereo unspecified) stands 81.5 to 84.5 °C.
`Cn1cc(C(=O)c2ccccn2)cc1C(=O)c1ccc(Cl)cc1` gave a melting point of 138 to 139 °C.
For the compound `COc1ccc2c(c1)Nc1cccc(S(=O)(=O)N(C)C)c1S2`, the melting point was in the range of 196 to 198 °C.
In the case of `COCCN1C(=O)C(C)(C)C(=O)Nc2cc(CN(CCn3cc(C)c4occc4c3=O)Cc3cccnc3C)ccc21` it was 205 to 206 °C; in that of `CC(=O)NC(Cc1ccccc1)C(=O)NC(C)C(=O)O` (stereo unspecified), 128 to 132 °C.
Under `COc1ccc(S(=O)(=O)N(Cc2ccccc2)C(Cc2nnn(C)n2)C(=O)NO)cc1` (stereo unspecified) stands 72 to 75 °C; under `CCNC(=O)c1ccc(N2CCNCC2)c(F)c1`, 142 to 145 °C.
Under `Cc1nc(O)n(COCc2ccccc2)c1Sc1ccccc1` stands 147 to 148 °C; under `COC(=O)C(CC1CCCC1)c1ccc(I)cc1` (stereo unspecified), 51 to 54 °C; under `CC(C)(C)OC(=O)NCc1ccc(Nc2ncc(Br)cc2[N+](=O)[O-])cc1`, 178 to 180 °C.
In the case of `c1ccc2c(=Nc3ccncc3)cc3oc4cc(N5CCCCC5)ccc4nc-3c2c1`, the melting point is 267 to 268 °C.
`CC(C)(C)NC(=O)NCc1ccc2c(c1)CN(C1CCC(=O)NC1=O)C2=O` (stereo unspecified) came in with a melting point of 260 to 262 °C.
`COc1cc(OC)nc(C(C#N)c2ccccc2[N+](=O)[O-])n1` (stereo unspecified) gave a melting point of 88 to 89 °C.
In the case of `CS(=O)(=O)c1ccc(-c2nn(Cc3ccccc3)c(C(F)(F)F)c2-c2ccc(F)cc2)cc1` it was 126 °C; in that of `CC(C)=CC(=O)Nc1ccc2ncnc(Nc3cccc(Br)c3)c2c1`, 300 to 301 °C.
In the case of `CC(=O)c1nc2c(OCc3ccccc3)cccc2n1C` it was 102 to 104 °C; in that of `O=c1[nH]nc(CCc2cc(F)c(C(F)(F)F)c(F)c2)cc1O`, 211 to 212 °C.
Under `CC(COc1ccc(O)c(C(N)=O)c1)NCc1ccccc1` (stereo unspecified) stands 102 to 104 °C; under `Cn1cc(C(=O)Nc2ccccc2-c2ccc(Cl)cc2)c(C(F)(F)F)n1`, 144 to 146 °C; under `COc1cccc2c1sc1[nH]c(=O)c(=O)[nH]c12`, over 300 °C.
For the compound `FC(F)(F)c1ccc(OC2(c3ccccc3)CCNCC2)cc1`, the melting point lay within 104 to 105 °C.
Under `CS(=O)(=O)c1nccc(-c2c(-c3ccc(F)cc3)nc3sccn23)n1` stands 197 to 198 °C.
In the case of `O=c1[nH]c2cc(F)c(F)cc2n2ccnc12` it was over 300 °C; in that of `CCCCOc1ccc2c(c1)C(N(C)S(C)(=O)=O)=CC(C)(C)O2`, 114 to 116 °C.
In the case of `COc1ccc(-c2cc(=O)[nH]c(=O)[nH]2)cc1OC` it was over 300 °C; in that of `CC(C)On1cnc2c(N)nc3ccccc3c21`, 224 to 225 °C; in that of `O=C(O)c1cccc(-c2cccc(Oc3cccc(Cl)c3Cl)n2)c1`, 216 to 217 °C.
`COc1ccc2c(c1)c(=O)c(CSC)cn2C` returned a melting point of 122 to 123 °C.
`COC(=O)c1ccc(/C=C/c2nc(-c3ccccc3)oc2C)cc1` came in with a melting point of 164 to 165 °C.
In the case of `CCCCCN(CCC12CC3CC(CC(C3)C1)C2)C(=O)NCCCc1ccccn1` it was 84.4 to 85.7 °C.
On to `COC(CC(=O)O)C(O)=Nc1cc(Cl)cc(Cl)c1` (stereo unspecified), for which the melting point is 125 to 126 °C.
In the case of `Cc1cc(-c2ccc(N(c3ccccc3)c3ccccc3)c(C)c2)ccc1N(c1ccccc1)c1ccccc1` it was 175 to 178 °C; in that of `CCOC(=O)c1csc(-c2cccc([N+](=O)[O-])c2)n1`, 142 to 145 °C.
Under `O=C(Cc1ccc(Cl)c(Cl)c1)N1CCc2occc2C1CO` (stereo unspecified) stands 155 to 156 °C; under `COc1cc(O)c(C(=O)C=Cc2ccc3c(c2)OCO3)c(OC)c1`, 162 °C.
Under `Cc1ccc(C(C)(C)C)cc1S(=O)(=O)Cl` stands 137 to 138 °C; under `O=C(OC(c1ccccc1)c1ccccc1)C1=CCC2C1C(=O)C2(Cl)Cl` (stereo unspecified), 96 to 97 °C.
In turn, `CN(C)CCCCCNc1nc2cc(Cl)c(Cl)cc2nc1-c1ccccn1` returned a melting point of 100 to 102 °C.
Under `COc1nc(CC(=O)O)c([N+](=O)[O-])cc1C` stands 135 to 137 °C; under `N#Cc1ccc(NC(=O)[C@H](CC(=O)O)NCc2ccccc2)cc1`, 178 °C; under `CCCNC(=O)CCCCCn1c(COCC)nc2c(N)nc3ccccc3c21`, 161 to 162 °C.
In the case of `COc1ccc(-c2ccccc2C#N)cc1` it was 82 to 83 °C; in that of `CCOC(C)(OCC)C(=O)c1c[nH]c2ncc(-c3cc(OC)c(OC)c(OC)c3)nc12`, 198 to 201 °C; in that of `CN(C)c1ccccc1CS(=O)(=O)c1nccn1-c1ccncc1`, 132 to 135 °C.
In the case of `Cc1ccccc1Nc1ccccc1C=C(Br)Br` it was 65 to 67 °C; in that of `O=S(=O)(c1c[nH]c(Br)c1-c1ccc(Cl)cc1)C(F)(F)F`, 163 to 165 °C.
In turn, `CCCc1ccccc1OCCCOc1cccc(OC(=CC(=O)OC)C(=O)OC)c1CC` registered a melting point of 63.5 to 66 °C.
Under `Cc1ccc(S(=O)(=O)OC2=C(Br)C(=O)c3ccc4c(c3C2=O)C=CC(C)(C)O4)cc1` stands 182 to 184 °C; under `N#Cc1ccc2cc3c4c(cccc4c2c1)C(=O)OC3=O`, over 320 °C.
In the case of `OC1CSC(Oc2cncc(-c3ccc(N4CCCCC4)cc3)c2)C(O)C1O` (stereo unspecified) it was 196 °C.
In the case of `CCCCc1cc(=O)c2ccccc2[nH]1` it was 140 °C.
Consider `OCc1c[nH]c(=S)n1[C@H]1CCc2c(F)cc(F)cc2C1`, for which the melting point was 206 to 207 °C.

A word on the melting point: it is the temperature of the solid-liquid transition.
